Reference: patent US20170355691A1, “PESTICIDALLY ACTIVE HETEROCYCLIC DERIVATIVES WITH SULPHUR CONTAINING SUBSTITUENTS” (Syngenta Participations AG, priority 2015, published 2017)

Legend:
[1] = system: Tetranychus urticae (two-spotted spider mite); assay: whole plant or invertebrate; format: in vivo; settings: foliar, 192 h
Procedure: Example B8: Activity Against Tetranychus urticae (Two-Spotted Spider Mite)
Bean leaf discs on agar in 24-well microtiter plates were sprayed with aqueous test solutions prepared from 10′000 ppm DMSO stock solutions. After drying the leaf discs were infested with a mite population of mixed ages. The samples were assessed for mortality on mixed population (mobile stages) 8 days after infestation.

[2] = system: Diabrotica balteata (corn root worm); assay: Activity against Diabrotica balteata, maize sprouts (Example B3); format: in vivo; settings: 96 h, L2 larvae on maize sprouts, 4 days after infestation, read-out: effect in at least one of the two categories (mortality or growth inhibition)
Procedure: Example B3: Activity Against Diabrotica balteata (Corn Root Worm)
Maize sprouts, placed on an agar layer in 24-well microtiter plates were treated with aqueous test solutions prepared from 10′000 ppm DMSO stock solutions by spraying. After drying, the plates were infested with L2 larvae (6 to 10 per well). The samples were assessed for mortality and growth inhibition in comparison to untreated samples 4 days after infestation. The following compounds gave an effect of at least 80% in at least one of the two categories (mortality or growth inhibition) at an application rate of 200 ppm: P1.1, P1.2, P1.6, P1.7, P1.8, P1.9, P1.10, P1.13, P1.14, P1.15, P1.16, P1.17 and P1.18.

[3] = system: Spodoptera littoralis (Egyptian cotton leaf worm); assay: Activity against Spodoptera littoralis, cotton leaf disc spray (Example B1); format: in vivo; settings: foliar, 72 h, L1 larvae on cotton leaf discs, 3 days after infestation, read-out: control in at least one of the three categories (mortality, anti-feedancy or growth inhibition)
Procedure: Example B1: Activity Against Spodoptera littoralis (Egyptian Cotton Leaf Worm)
Cotton leaf discs were placed on agar in 24-well microtiter plates and sprayed with aqueous test solutions prepared from 10′000 ppm DMSO stock solutions. After drying the leaf discs were infested with five L1 larvae. The samples were assessed for mortality, anti-feedant effect, and growth inhibition in comparison to untreated samples 3 days after infestation. Control of Spodoptera littoralis by a test sample is when at least one of mortality, anti-feedant effect, and growth inhibition is higher than the untreated sample. The following compounds gave an effect of at least 80% control in at least one of the three categories (mortality, anti-feedancy or growth inhibition) at an application rate of 200 ppm: P1.2, P1.3, P1.6, P1.7, P1.8, P1.9, P1.10, P1.12, P1.13, P1.14, P1.15, P1.16, P1.17 and P1.18.

[4] = system: Plutella xylostella (diamond back moth); assay: Activity against Plutella xylostella, artificial diet (Example B2); format: in vivo; settings: 120 h, L2 larvae on artificial diet, 5 days after infestation, read-out: effect in at least one of the two categories (mortality or growth inhibition)
Procedure: Example B2: Activity Against Plutella xylostella (Diamond Back Moth)
24-well microtiter plates with artificial diet were treated with aqueous test solutions prepared from 10′000 ppm DMSO stock solutions by pipetting. After drying, the plates were infested with L2 larvae (10 to 15 per well). The samples were assessed for mortality and growth inhibition in comparison to untreated samples 5 days after infestation. The following compounds gave an effect of at least 80% in at least one of the two categories (mortality or growth inhibition) at an application rate of 200 ppm: P1.3, P1.6, P1.7, P1.8, P1.9, P1.13, P1.14, P1.15, P1.16, P1.17 and P1.18.

[5] = system: Myzus persicae (green peach aphid); assay: Activity against Myzus persicae, sunflower leaf disc spray (Example B5); format: in vivo; settings: foliar, 144 h, mixed-age aphid population on sunflower leaf discs, 6 days after infestation
Procedure: Example B5: Activity Against Myzus persicae (Green Peach Aphid)
(§1) Sunflower leaf discs were placed on agar in a 24-well microtiter plate and sprayed with aqueous test solutions prepared from 10′000 ppm DMSO stock solutions. After drying, the leaf discs were infested with an aphid population of mixed ages. The samples were assessed for mortality 6 days after infestation.

[6] = system: Euschistus heros (neotropical brown stink bug); assay: Activity against Euschistus heros, soybean leaf spray (Example B7); format: in vivo; settings: 120 h, N-2 nymphs on soybean leaf, 5 days after infestation
Procedure: Example B7: Activity Against Euschistus heros (Neotropical Brown Stink Bug)
Soybean leaf on agar in 24-well microtiter plates were sprayed with aqueous test solutions prepared from 10′000 ppm DMSO stock solutions. After drying the leaf were infested with N-2 nymphs. The samples were assessed for mortality 5 days after infestation.

[7] = system: Bemisia tabaci (cotton white fly); assay: Activity against Bemisia tabaci, cotton leaf disc spray (Example B6); format: in vivo; settings: foliar, 144 h, adult white flies on cotton leaf discs, 6 days after incubation
Procedure: Example B6: Activity Against Bemisia tabaci (Cotton White Fly)
Cotton leaf discs were placed on agar in 24-well microtiter plates and sprayed with aqueous test solutions prepared from 10′000 ppm DMSO stock solutions. After drying the leaf discs were infested with adult white flies. The samples were checked for mortality 6 days after incubation.

[8] = system: Thrips tabaci (onion thrips); assay: Activity against Thrips tabaci, sunflower leaf disc spray (Example B9); format: in vivo; settings: foliar, 144 h, mixed-age thrips population on sunflower leaf discs, 6 days after infestation
Procedure: Example B9: Activity Against Thrips tabaci (Onion Thrips)
as §1, with “in” for “in a”, “plates” for “plate”, “drying” for “drying,”, “a thrips” for “an aphid”

[9] = system: Spodoptera littoralis (Egyptian cotton leaf worm); assay: Activity against Spodoptera littoralis, systemic via lettuce roots in agar (Example B4); format: in vivo; settings: 144 h, 12.5 ppm in agar, uptake by lettuce roots, eggs, 6 days after infestation, read-out: control in at least one of the three categories (mortality, anti-feedancy or growth inhibition)
Description: Example B4: Activity Against Spodoptera littoralis (Egyptian Cotton Leaf Worm)
Test compounds were applied by pipette from 10′000 ppm DMSO stock solutions into 24-well plates and mixed with agar. Lettuce seeds were placed on the agar and the multi well plate was closed by another plate which contains also agar. After 7 days the roots have absorbed the compound and the lettuce has grown into the lid plate. The lettuce leafs were now cut off into the lid plate. Spodoptera eggs were pipetted through a plastic stencil on a humid gel blotting paper and the plate closed with it. The samples were assessed for mortality, anti-feedant effect and growth inhibition in comparison to untreated samples 6 days after infestation. The following compound gave an effect of at least 80% control in at least one of the three categories (mortality, anti-feedancy or growth inhibition) at an application rate of 12.5 ppm: P1.17 and P1.18.

Row | SMILES | percent effect (mortality or growth inhibition) at 200 ppm [2] [%] | percent control (mortality, anti-feedant effect or growth inhibition) at 200 ppm [3] [%] | percent effect (mortality or growth inhibition) at 200 ppm [4] [%] | also measured
1 | CCSc1cc(C(F)(F)F)cnc1-n1ncc(-c2cccc(C(F)(F)F)c2)c1C [Compound P1.1, 3-ethylsulfanyl-2-[5-methyl-4-[3-(trifluoromethyl)phenyl]pyrazol-1-yl]-5-(trifluoromethyl)pyridine] | ≥ 80 |  |  | mortality at 200 ppm [1]: ≥ 80%
2 | CCS(=O)(=O)c1cc(C(F)(F)F)cnc1-n1ncc(-c2cccc(C(F)(F)F)c2)c1C [Compound P1.2, 3-ethylsulfonyl-2-[5-methyl-4-[3-(trifluoromethyl)phenyl]pyrazol-1-yl]-5-(trifluoromethyl)pyridine] | ≥ 80 | ≥ 80 |  | 
3 | CCS(=O)(=O)c1cc(C(F)(F)F)cnc1-n1cc(-c2ccc(C(F)(F)F)cc2)cn1 [Compound P1.3, 3-ethylsulfonyl-5-(trifluoromethyl)-2-[4-[4-(trifluoromethyl)phenyl]pyrazol-1-yl]pyridine] |  | ≥ 80 | ≥ 80 | 
4 | CCSc1cc(C(F)(F)F)cnc1-n1ncc(-c2ccc(C(F)(F)F)cc2)c1C [Compound P1.4] |  |  |  | melting point: 113 to 114 °C
5 | CCS(=O)(=O)c1cc(C(F)(F)F)cnc1-n1ncc(-c2ccc(C(F)(F)F)cc2)c1C [Compound P1.5] |  |  |  | melting point: 152 to 154 °C
6 | CCS(=O)(=O)c1cc(C(F)(F)F)cnc1-n1cc(-c2cccc(C(F)(F)F)c2)cn1 [Compound P1.6] | ≥ 80 | ≥ 80 | ≥ 80 | 
7 | CCS(=O)(=O)c1cc(C(F)(F)F)cnc1-n1cc(-c2ccc(C(F)(F)F)nc2)cn1 [Compound P1.7] | ≥ 80 | ≥ 80 | ≥ 80 | 
8 | CCS(=O)(=O)c1cc(C(F)(F)F)cnc1-n1cc(-c2cc(C(F)(F)F)ccn2)cn1 [Compound P1.8] | ≥ 80 | ≥ 80 | ≥ 80 | 
9 | CCS(=O)(=O)c1cc(C(F)(F)F)ccc1-n1cc(-c2cccc(C(F)(F)F)c2)cn1 [Compound P1.9] | ≥ 80 | ≥ 80 | ≥ 80 | 
10 | CCS(=O)(=O)c1cc(C(F)(F)F)ccc1-n1cc(-c2cc(C(F)(F)F)ccn2)cn1 [Compound P1.10, 2-[1-[2-ethylsulfonyl-4-(trifluoromethyl)phenyl]pyrazol-4-yl]-4-(trifluoromethyl)pyridine] | ≥ 80 | ≥ 80 |  | mortality at 200 ppm [5]: ≥ 80%
11 | CCS(=O)(=O)c1cc(C(F)(F)F)cnc1-n1cc(-c2ccc(SC(F)(F)F)cc2)cn1 [Compound P1.11] |  |  |  | melting point: 181 to 182 °C
12 | CCS(=O)(=O)c1cc(C(F)(F)F)cnc1-n1cc(-c2cccc(SC(F)(F)F)c2)cn1 [Compound P1.12] |  | ≥ 80 |  | 
13 | CCS(=O)(=O)c1cc(C(F)(F)F)ccc1-n1cc(-c2ccc(C(F)(F)F)cc2)cn1 [Compound P1.13] | ≥ 80 | ≥ 80 | ≥ 80 | mortality at 200 ppm [6]: ≥ 80%
14 | CCS(=O)(=O)c1cc(C(F)(F)F)ccc1-n1ncc(-c2ccc(C(F)(F)F)cc2)c1C [Compound P1.15, 1-[2-ethylsulfonyl-4-(trifluoromethyl)phenyl]-5-methyl-4-[4-(trifluoromethyl)phenyl]pyrazole] | ≥ 80 | ≥ 80 | ≥ 80 | mortality at 200 ppm [7]: ≥ 80%; mortality at 200 ppm [8]: ≥ 80%; mortality at 200 ppm [5]: ≥ 80%
15 | CCS(=O)(=O)c1cc(C(F)(F)F)ccc1-n1ncc(-c2cccc(C(F)(F)F)c2)c1C [Compound P1.16] | ≥ 80 | ≥ 80 | ≥ 80 | mortality at 200 ppm [7]: ≥ 80%; mortality at 200 ppm [6]: ≥ 80%; mortality at 200 ppm [5]: ≥ 80%
16 | CCS(=O)(=O)c1cc(C(F)(F)F)ccc1-n1cc(-c2cncc(C(F)(F)F)c2)cn1 [Compound P1.17] | ≥ 80 | ≥ 80 | ≥ 80 | mortality at 200 ppm [7]: ≥ 80%; mortality at 200 ppm [6]: ≥ 80%; percent control (mortality, anti-feedant effect or growth inhibition) at 12.5 ppm [9]: ≥ 80%; mortality at 200 ppm [5]: ≥ 80%
17 | CCS(=O)(=O)c1cc(C(F)(F)F)cnc1-n1cc(-c2cncc(C(F)(F)F)c2)cn1 [Compound P1.18] | ≥ 80 | ≥ 80 | ≥ 80 | percent control (mortality, anti-feedant effect or growth inhibition) at 12.5 ppm [9]: ≥ 80%; mortality at 200 ppm [5]: ≥ 80%
18 | CCSc1cccnc1-n1cc(-c2ccc(C(F)(F)F)nc2)cn1 [Compound P1.19, 3-ethylsulfanyl-2-[4-[6-(trifluoromethyl)-3-pyridyl]pyrazol-1-yl]pyridine] |  |  |  | melting point: 121 to 123 °C
